Data on one compound can be found in PMC12645583 (British journal of haematology, 2025).

One experiment has as its target IRAK1 (Homo sapiens, UniProt P51617). Description: KINOMEscan kinase profiling, % inhibition at […]. The experiment is classed as binding.
The target of a further experiment is HCK (Homo sapiens, UniProt P08631). Description: SelectScreen Z-Lyte enzymatic kinase assay at ATP Km app. The experiment is classed as biochemical.
A further experiment has as its target BTK (Homo sapiens, UniProt Q06187). Described as above. The experiment is classed as biochemical.

IRAK1, sequence (P51617 whole entry): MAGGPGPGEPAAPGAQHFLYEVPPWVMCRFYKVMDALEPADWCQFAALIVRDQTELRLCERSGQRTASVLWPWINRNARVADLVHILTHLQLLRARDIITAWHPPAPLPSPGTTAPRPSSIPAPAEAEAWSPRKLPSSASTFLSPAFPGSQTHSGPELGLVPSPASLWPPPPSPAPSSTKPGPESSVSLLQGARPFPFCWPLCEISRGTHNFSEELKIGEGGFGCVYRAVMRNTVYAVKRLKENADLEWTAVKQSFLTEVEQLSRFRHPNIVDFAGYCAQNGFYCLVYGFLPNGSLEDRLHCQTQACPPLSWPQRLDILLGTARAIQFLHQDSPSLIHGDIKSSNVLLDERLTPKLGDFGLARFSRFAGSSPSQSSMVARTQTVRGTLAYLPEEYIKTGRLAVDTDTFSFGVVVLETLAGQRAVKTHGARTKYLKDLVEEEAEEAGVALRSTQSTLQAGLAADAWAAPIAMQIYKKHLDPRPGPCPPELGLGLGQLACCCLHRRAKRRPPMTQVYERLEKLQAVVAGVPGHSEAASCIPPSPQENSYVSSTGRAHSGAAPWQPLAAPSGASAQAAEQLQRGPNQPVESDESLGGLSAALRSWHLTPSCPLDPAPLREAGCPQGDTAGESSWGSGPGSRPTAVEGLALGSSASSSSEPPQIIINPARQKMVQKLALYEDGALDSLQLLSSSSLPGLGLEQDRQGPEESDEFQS
BTK, sequence (Q06187 2-659): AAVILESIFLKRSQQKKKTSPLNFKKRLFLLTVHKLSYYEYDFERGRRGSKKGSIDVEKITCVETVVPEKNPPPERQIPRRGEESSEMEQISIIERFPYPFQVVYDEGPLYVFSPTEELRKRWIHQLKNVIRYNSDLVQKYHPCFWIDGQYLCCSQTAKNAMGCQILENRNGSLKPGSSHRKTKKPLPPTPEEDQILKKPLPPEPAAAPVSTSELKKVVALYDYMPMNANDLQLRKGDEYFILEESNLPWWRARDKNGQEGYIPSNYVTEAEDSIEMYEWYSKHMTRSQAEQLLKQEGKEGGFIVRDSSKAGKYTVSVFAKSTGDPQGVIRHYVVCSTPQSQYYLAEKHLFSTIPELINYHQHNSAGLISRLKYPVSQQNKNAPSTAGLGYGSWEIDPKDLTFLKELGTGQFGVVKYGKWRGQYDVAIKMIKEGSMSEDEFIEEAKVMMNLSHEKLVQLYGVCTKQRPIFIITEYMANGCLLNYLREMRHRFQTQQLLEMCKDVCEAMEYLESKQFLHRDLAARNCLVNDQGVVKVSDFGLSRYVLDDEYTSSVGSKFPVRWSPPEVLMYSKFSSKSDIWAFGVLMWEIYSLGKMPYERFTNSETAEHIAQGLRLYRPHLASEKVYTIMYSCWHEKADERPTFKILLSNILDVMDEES
HCK, sequence (P08631 2-526): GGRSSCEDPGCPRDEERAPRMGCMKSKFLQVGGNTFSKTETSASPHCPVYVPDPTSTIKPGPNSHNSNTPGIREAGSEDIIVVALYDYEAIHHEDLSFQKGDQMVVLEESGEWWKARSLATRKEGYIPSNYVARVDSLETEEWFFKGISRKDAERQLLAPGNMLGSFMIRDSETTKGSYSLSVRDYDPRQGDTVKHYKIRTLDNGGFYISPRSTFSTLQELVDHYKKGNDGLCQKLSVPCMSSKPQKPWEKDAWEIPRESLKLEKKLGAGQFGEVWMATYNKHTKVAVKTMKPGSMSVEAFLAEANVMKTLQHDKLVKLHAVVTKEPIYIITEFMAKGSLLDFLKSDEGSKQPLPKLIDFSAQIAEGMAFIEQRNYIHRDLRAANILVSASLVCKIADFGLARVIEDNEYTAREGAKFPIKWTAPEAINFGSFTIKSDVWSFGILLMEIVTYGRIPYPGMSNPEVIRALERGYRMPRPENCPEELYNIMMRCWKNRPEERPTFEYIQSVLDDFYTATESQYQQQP

In general, IC50 refers to the concentration needed to halve the response being measured. Low values mean greater potency in that assay, high ones weaker potency in that assay. As to `C1=C/COCc2cc(ccc2OCCN2CCCC2)Nc2nccc(n2)-c2cccc(c2)COC/1` [pacritinib], the “%” value at IRAK1 was determined as 99.5%. Also, the IC50 was found to be 528 nM against HCK and 367 nM against BTK.
